Tested on: human fibrosarcoma HT1080 cells
Format: cell-based

| Structure (SMILES) | protection of HT1080 cells against WT-PA plus FP59 |
| --- | --- |
| CNC(=O)[C@@H](NC(=O)[C@H](CC(C)C)[C@H](O)C(=O)NO)C(C)(C)C [BB-2516, Marimastat] | did not protect |
| CNC(=O)[C@H](Cc1c[nH]c2ccccc12)NC(=O)[C@@H](CC(=O)NO)CC(C)C [GM6001] | did not protect |

Source: patent US9403872B2 (priority 1999, dated 2016)
